Reference: patent EP2396329B1, “COMPOUNDS FOR THE TREATMENT OF HEPATITIS C” (priority 2009, dated 2010)
pEC50: −log10 of the molar value. Where two headings read alike, the source gives them in different places.

Tested on: HCV replicon
Test: HCV replicon assay (FRET or luciferase readout)
Assay type: cell-based
Excerpt: FRET Assay Preparation. To perform the HCV FRET screening assay, 96-well cell culture plates were used. The FRET peptide (Anaspec, Inc.) (Taliani et al., Anal. Biochem. 1996, 240, 60-67) contains a fluorescence donor, EDANS, near one end of the peptide and an acceptor, DABCYL, near the other end. The fluorescence of the peptide is quenched by […] resonance energy transfer (RET) between the donor and the acceptor, but as the NS3 protease cleaves the peptide the products are released from RET quenching and the fluorescence of the donor becomes apparent. The assay reagent was made as follows: 5X cell Luciferase cell culture lysis reagent from Promega (#E153A) diluted to 1X with dH2O, NaCl added to 150 mM final, the FRET peptide diluted to 20 µM final from a 2 mM stock.
To prepare plates, HCV replicon cells, with or without a Renilla luciferase reporter gene, were trypsinized and placed into each well of a 96-well plate with titrated test compounds added in columns 3 through 12; columns 1 and 2 contained a control compound (HCV protease inhibitor), and the bottom row contained cells without compound. The plates were then placed in a CO2 incubator at 37 °C.
Assays. Subsequent to addition of the test compounds described above (FRET Assay Preparation), at various times the plate was removed and Alamar blue solution (Trek Diagnostics, #00-100) was added per well as a measure of cellular toxicity. After reading in a Cytoflour 4000 instrument (PE Biosystems), plates were rinsed with PBS and then used for FRET assay by the addition of 30 ul of the FRET peptide assay reagent described above (FRET Assay Preparation) per well. The plate was then placed into the Cytoflour 4000 instrument which had been set to 340 excite/490 emission, automatic mode for 20 cycles and the plate read in a kinetic mode. Typically, the signal to noise using an endpoint analysis after the reads was at least three-fold. Alternatively, after Alamar blue reading, plates were rinsed with PBS, 50 ul of DMEM (high glucose) without phenol red was added and plates were then used for luciferase assay using the Promega Dual-Glo Luciferase Assay System.
Compound analysis was determined by quantification of the relative HCV replicon inhibition and the relative cytotoxicity values. To calculate cytoxicity values, the average Alamar Blue fluorescence signals from the control wells were set as 100% non-toxic. The individual signals in each of the compound test wells were then divided by the average control signal and multiplied by 100% to determine […]. To calculate the HCV replicon inhibition values, an average background value was obtained from the two wells containing the highest amount of HCV protease inhibitor at the end of the assay period. These numbers were similar to those obtained from naïve Huh-7 cells.
The background numbers were then subtracted from the average signal obtained from the control wells and this number was used as 100% activity. The individual signals in each of the compound test wells were then divided by the averaged control values after background subtraction and multiplied by 100% to determine percent activity. EC50 values for a protease inhibitor titration were calculated as the concentration which caused a 50% reduction in FRET or luciferase activity. The two numbers generated for the compound plate, percent cytoxicity and percent activity were used to determine compounds of interest for further analysis.

[1] = Hepatitis C virus, HCV replicon cells, FRET or luciferase activity, read-out: EC50

Row | SMILES | pEC50 (Hepatitis C virus) | pEC50 [1] | also measured
1 | CCn1ncc(C(=O)N2C3CCCC2COC3)c1C1=Cc2cc(OC)ccc2-c2c(C3CCCCC3)c3ccc(C(=O)NS(=O)(=O)C(C)C)cc3n2C1 | 6.30 to 9.00 |  | 
2 | COc1ccc2c(c1)C=C(c1c(C(=O)N3CC4CCC(C3)O4)c(C)nn1C(C)C)Cn1c-2c(C2CCCCC2)c2ccc(C(=O)NS(=O)(=O)C(C)C)cc21 | 6.30 to 9.00 |  | 
3 | CCn1nc(C)c(C(=O)N2C[C@@H](C)N(C)[C@@H](C)C2)c1C1=Cc2cc(OC)ccc2-c2c(C3CCCCC3)c3ccc(C(=O)NS(=O)(=O)C(C)C)cc3n2C1 |  | 6.30 to 9.00 | 
4 | CCn1ncc(C(=O)N2CC3CCC(C2)O3)c1C1=Cc2cc(OC)ccc2-c2c(C3CCCCC3)c3ccc(C(=O)NS(=O)(=O)C(C)C)cc3n2C1 | 6.30 to 9.00 |  | 
5 | CCn1nc(C)c(C(=O)N2CC3CCC(C2)N3C)c1C1=Cc2cc(OC)ccc2-c2c(C3CCCCC3)c3ccc(C(=O)NS(=O)(=O)C(C)C)cc3n2C1 | 6.30 to 9.00 |  | 
6 | CCn1nc(C)c(C(=O)N2CCO[C@H](COC)C2)c1C1=Cc2cc(OC)ccc2-c2c(C3CCCCC3)c3ccc(C(=O)NS(=O)(=O)C(C)C)cc3n2C1 |  | 6.30 to 9.00 | 
7 | COc1ccc2c(c1)C=C(c1nn(C(C)C)c(C)c1C(=O)N1C[C@@H](C)O[C@@H](C)C1)Cn1c-2c(C2CCCCC2)c2ccc(C(=O)NS(=O)(=O)C(C)C)cc21 [drawing 151] |  | 6.30 to 9.00 | 
8 | COc1ccc2c(c1)C=C(c1nn(C(C)C)c(C)c1C(=O)N1C[C@@H](C)O[C@@H](C)C1)Cn1c-2c(C2CCCCC2)c2ccc(C(=O)NS(=O)(=O)C(C)C)cc21 [drawing 156] |  |  | pEC50 (HCV replicon cells, FRET or luciferase activity, read-out: EC50): 6.30 to 9.00
